# Laboratory results reported in patent US11834434B2, “Substituted 2-heteroaryloxypyridines and salts thereof and their use as herbicidal agents” (Bayer Aktiengesellschaft, priority 2018, dated 2023).
# Experiments:
# Assay type in all cases: in vivo
# Setaria viridis (SETVI) = assay: Pre-emergence herbicidal action against Setaria viridis; settings: 1280 g/ha; scored visually after about 3 weeks vs untreated controls; 100% = plants have died, 0% = like control plants
# Text: (§1) Seeds of mono- and dicotyledonous weed plants were placed in plastic pots in sandy loam soil (doubly sown with in each case one species of mono- or dicotyledonous weed plants per pot) and covered with soil. The compounds of the invention, formulated in the form of wettable powders (WP) or as emulsion concentrates (EC), were then applied onto the surface of the covering soil as aqueous suspension or emulsion with addition of 0.5% additive at a water application rate of 600 liters per hectare (converted). After the treatment, the pots were placed in a greenhouse and kept under good growth conditions for the test plants. After about 3 weeks, the effect of the preparations was scored visually in comparison with untreated controls as percentages. For example, 100% activity=the plants have died, 0% activity=like control plants. Tables C1 to C8 below show the effects of selected compounds of the general formula (I) according to Table 1 on various harmful plants and an application rate corresponding to 1280 g/ha, which were obtained by the experimental procedure mentioned above.
# Lolium rigidum (LOLRI) = assay: Pre-emergence herbicidal action against Lolium rigidum; settings: 1280 g/ha; scored visually after about 3 weeks vs untreated controls; 100% = plants have died, 0% = like control plants
# Text: as §1
# Poa annua (POAAN) [1] = assay: Pre-emergence herbicidal action against Poa annua; settings: 1280 g/ha; scored visually after about 3 weeks vs untreated controls; 100% = plants have died, 0% = like control plants
# Text: as §1
# [2] = system: Matricaria inodora (MATIN); assay: Post-emergence herbicidal action against Matricaria inodora; settings: 1280 g/ha; rated visually after about 3 weeks vs untreated controls; 100% = plants have died, 0% = like control plants; column head prints STEME
# Protocol: (§2) Seeds of mono- and dicotyledonous weed plants were placed in plastic pots in sandy loam soil (doubly sown with in each case one species of mono- or dicotyledonous weed plants per pot), covered with soil and cultivated in a greenhouse under controlled growth conditions. 2 to 3 weeks after sowing, the test plants were treated at the one-leaf stage. The compounds of the invention, formulated in the form of wettable powders (WP) or as emulsion concentrates (EC), were applied onto the green parts of the plants as aqueous suspension or emulsion with addition of 0.5% additive at a water application rate of 600 liters per hectare (converted). After the test plants had been kept in the greenhouse under optimum growth conditions for about 3 weeks, the activity of the preparations was rated visually in comparison to untreated controls. For example, 100% activity=the plants have died, 0% activity=like control plants. Tables B1 to B8 below show the effects of selected compounds of the general formula (I) according to Table 1 on various harmful plants and an application rate corresponding to 1280 g/ha, which were obtained by the experimental procedure mentioned above.
# Stellaria media (STEME) [3] = assay: Post-emergence herbicidal action against Stellaria media; settings: 1280 g/ha; rated visually after about 3 weeks vs untreated controls; 100% = plants have died, 0% = like control plants
# Protocol: as §2
# Stellaria media (STEME) [4] = assay: Pre-emergence herbicidal action against Stellaria media; settings: 1280 g/ha; scored visually after about 3 weeks vs untreated controls; 100% = plants have died, 0% = like control plants
# Text: as §1
# [5] = system: Amaranthus retroflexus (AMARE); assay: Pre-emergence herbicidal action against Amaranthus retroflexus; settings: 1280 g/ha; scored visually after about 3 weeks vs untreated controls; 100% = plants have died, 0% = like control plants
# Text: as §1
# [6] = system: Matricaria inodora (MATIN); assay: Pre-emergence herbicidal action against Matricaria inodora; settings: 1280 g/ha; scored visually after about 3 weeks vs untreated controls; 100% = plants have died, 0% = like control plants
# Text: as §1
# Poa annua (POAAN) [7] = assay: Post-emergence herbicidal action against Poa annua; settings: 1280 g/ha; rated visually after about 3 weeks vs untreated controls; 100% = plants have died, 0% = like control plants
# Protocol: as §2
# [8] = system: Echinochloa crus-galli (ECHCG); assay: Post-emergence herbicidal action against Echinochloa crus-galli; settings: 1280 g/ha; rated visually after about 3 weeks vs untreated controls; 100% = plants have died, 0% = like control plants
# Protocol: as §2
# [9] = system: Amaranthus retroflexus (AMARE); assay: Post-emergence herbicidal action against Amaranthus retroflexus; settings: 1280 g/ha; rated visually after about 3 weeks vs untreated controls; 100% = plants have died, 0% = like control plants
# Protocol: as §2
# [10] = system: Echinochloa crus-galli (ECHCG); assay: Pre-emergence herbicidal action against Echinochloa crus-galli; settings: 1280 g/ha; scored visually after about 3 weeks vs untreated controls; 100% = plants have died, 0% = like control plants
# Text: as §1
# [11] = system: Abutilon theophrasti (ABUTH); assay: Post-emergence herbicidal action against Abutilon theophrasti; settings: 1280 g/ha; rated visually after about 3 weeks vs untreated controls; 100% = plants have died, 0% = like control plants
# Protocol: as §2
# [12] = system: Abutilon theophrasti (ABUTH); assay: Pre-emergence herbicidal action against Abutilon theophrasti; settings: 1280 g/ha; scored visually after about 3 weeks vs untreated controls; 100% = plants have died, 0% = like control plants
# Text: as §1
# Poa annua (POAAN) [13] = assay: Early post-emergence herbicidal action against Poa annua; settings: 1900 g/ha; scored visually 9 to 12 days after treatment vs untreated controls; 100% = plants have died, 0% = like control plants
# Protocol: (§3) Seeds of monocotyledonous or dicotyledonous weed plants were placed in 96-well microtiter plates in quartz sand and grown in a climatized chamber under controlled growth conditions. 5 to 7 days after sowing, the test plants were treated at the cotyledon stage. The compounds according to the invention, formulated in the form of emulsion concentrates (EC), were applied with a water application rate of the equivalent of 2200 liters per hectare. After the test plants had been left to stand in the climatized chamber for 9 to 12 days under optimum growth conditions, the effect of the preparations was scored visually in comparison to untreated controls. For example, 100% activity=the plants have died, 0% activity=like control plants. Tables A1 to A2 below show the effects of selected compounds of the general formula (I) according to Table 1 on various harmful plants and an application rate corresponding to 1,900 g/ha, which were obtained by the experimental procedure mentioned above.
# Agrostis tenuis (AGSTE) = assay: Early post-emergence herbicidal action against Agrostis tenuis; settings: 1900 g/ha; scored visually 9 to 12 days after treatment vs untreated controls; 100% = plants have died, 0% = like control plants
# Protocol: as §3
SMILES,Pre-emergence action against Setaria viridis (SETVI) (Setaria viridis (SETVI)),Pre-emergence action against Lolium rigidum (LOLRI) (Lolium rigidum (LOLRI)),Pre-emergence action against Poa annua (POAAN) (Poa annua (POAAN) [1]),Post-emergence action against Matricaria inodora (MATIN) [2],Post-emergence action against Stellaria media (STEME) (Stellaria media (STEME) [3]),Pre-emergence action against Stellaria media (STEME) (Stellaria media (STEME) [4]),Pre-emergence action against Amaranthus retroflexus (AMARE) [5],Pre-emergence action against Matricaria inodora (MATIN) [6],Post-emergence action against Poa annua (POAAN) (Poa annua (POAAN) [7]),Post-emergence action against Echinochloa crus-galli (ECHCG) [8],Post-emergence action against Amaranthus retroflexus (AMARE) [9],Pre-emergence action against Echinochloa crus-galli (ECHCG) [10],Post-emergence action against Abutilon theophrasti (ABUTH) [11],Pre-emergence action against Abutilon theophrasti (ABUTH) [12],Early post-emergence action against Poa annua (POAAN) (Poa annua (POAAN) [13]),Early post-emergence action against Agrostis tenuis (AGSTE) (Agrostis tenuis (AGSTE))
Cc1ccc(Cc2ccc(F)cc2F)c(Oc2ncccn2)n1 [Example I-444],100%,90%,100%,90%,90%,100%,100%,100%,100%,–,–,–,–,–,–,–
Cc1cc(C)c(Cc2ccc(F)cc2)c(Oc2ncc(F)cn2)n1 [Example I-479],100%,100%,100%,100%,100%,100%,100%,100%,100%,100%,100%,100%,100%,100%,–,–
"Cc1cc(C)c(Cc2ccccc2)c(Oc2ncc(F)cn2)n1 [Example I-478, 2-[(3-Benzyl-4,6-dimethyl-2-pyridyl)oxy]-5-fluoropyrimidine]",100%,100%,100%,90%,100%,100%,100%,100%,100%,90%,100%,100%,100%,100%,–,–
COc1cccc(Cc2c(C)cc(C)nc2Oc2ncc(F)cn2)c1 [Example I-484],100%,100%,100%,100%,100%,100%,100%,100%,100%,100%,100%,100%,100%,100%,–,–
Cc1cc(C)c(Oc2ncc(Cl)cc2F)c(Oc2ncc(F)cn2)n1 [Example I-591],–,–,–,–,–,–,–,–,–,–,–,–,–,–,100%,100%
Cc1ccnc(Oc2ncccn2)c1Sc1ccc(F)cc1F [Example I-210],100%,100%,100%,–,–,100%,100%,100%,100%,90%,–,100%,90%,100%,–,–
